Assay [1] concerns the target HparOBP49 (Holotrichia parallela, UniProt A0A0G2YD95). Description: Fluorescence competitive binding assay with 1-NPN probe, recombinant HparOBP49. The procedure:
(§1) Purification was performed via Ni ion affinity chromatography (GE Healthcare, Beijing, China), and the His-tag was removed using enterokinase for HparOBP20 or tobacco etch virus (TEV) protease for HparOBP49.
(§2) We used an F-380 fluorescence spectrophotometer (Tianjin, China) to determine the results of the perform the binding assay at room temperature (25°C). The excitation wavelength was 337 nm, and the emission spectrum was recorded between 390 and 460 nm.

Assay [2] deals with HparOBP20 (Holotrichia parallela, UniProt A0A0G2YKL4). The assay can be described thus: Fluorescence competitive binding assay with 1-NPN probe, recombinant HparOBP20. As for the experimental part:
as §1, §2

Assay [3] relates to DBC adults. The assay can be described thus: Y-tube olfactometer behavioral response. It counts as in vivo, Holotrichia parallela. The note with it: 1 μg/μl, T/(T+C); for Selective response rate (%), Male / Selective response rate (%), Female: in Figure 6, letters mark significance. The procedure: The behavioral responses of female and male adults to the putative ligands were tested using a Y-tube olfactometer in a dark room at 27 ± 1°C. A filter paper (25 × 8 mm) with 10 μl of the test compound was placed at the end of one arm of the Y-tube, with 10 μl of methanol at the end of the other arm (control tube). The airflow was 500 ml/min. Six replicates were performed for each stimulant with 10 healthy virgin adults in the main stem of the Y-tube, and 10 min was allowed for their distribution. The response rate was calculated according to the following equations: response rate = (T+C)/SUM and selective response rate = T/(T+C), where T represents the number of beetles in the treatment tube; C indicates the number of beetles in the control tube; and SUM is the number of beetles tested.

In assay [4] the test system is DBC antennae. Description: Electroantennogram (EAG) responses of virgin male/female antennae. The note with it: 1 μg/μl, corrected with methanol; for EAG response, males: male antennae. Set-up: species or system Holotrichia parallela. As for the experimental part:
The EAG responses of virgin male/female antennae were measured after removing the tips of the three antennal lamellae (at approximately 1 mm) and separating them from each other. The chemicals used for the EAG and behavior assays were diluted in methanol (HPLC grade) to varying concentrations (0.1, 1, and 10 μg/μl), and methanol was used as a control. A 10 μl aliquot of each concentration was applied to a filter paper (25 × 8 mm). EAG responses were recorded for 5 s, with a stimulation interval of 30 s and a flow rate of 4 ml/s for both the stimulant and purge airflow. Each chemical was tested against six antennae, and each antenna was tested with three repeated stimulations. The EAG apparatus consisted of a signal acquisition system (IDAC-4), a micromanipulator assembly (INR-5), a stimulus controller (CS-05), and a system for outputting the EAG results (Syntech Company, Holland).

Assay [5] relates to DBC adults. The assay can be described thus: Field evaluation, baited traps. The format is in vivo, Holotrichia parallela. The note with it: for Male DBCs caught in traps: males, 360 mg per dispenser, mean ± SE, N=3 traps; for Attractant ability in traps: result in words. The procedure:
According to the laboratory evaluation, in addition to the main sex pheromone component, L-leucine methyl ester, (Z)-3-hexenyl acetate was considered as a candidate compound for attracting DBC adults in the field. The tested chemicals were individually dissolved with methanol to 360 mg/ml. A dispenser was constructed using oil-free cotton wool with 360 mg of the tested chemical and stored in a freezer before use. Methanol was employed as a control. The treatments were as follows: • - L-leucine methyl ester alone, 360 mg/ml, 1 ml/dispenser • - (Z)-3-hexenyl acetate alone, 360 mg/ml, 1 ml/dispenser • - methanol alone as control, 99% purity, 1 ml/dispenser All experiments were performed at the experimental station of the Shandong Peanut Research Institute, Lai Xi Wang Cheng, Qingdao, China. Traps were placed in middle of the field, and each trap was located 60 m from any other trap, so that the individual treatments were 60 m apart. To avoid cross-contamination, only one compound was tested at each sub-site at any time, and each compound was tested at only one sub-site ([Isberg et al., 2017]). Each trap was set to operate from 1 h before sunset until 1 h after sunset. Three traps (replicates) were selected for each treatment. The test period was June 1–20, 2017. As a rule, the traps were checked every day, and the individuals that were caught in all experiments were sexed.

The mark [6] stands for this setting: displacement of 2 μM 1-NPN, 2 μM protein, Tris-HCl pH 7.4, 25°C, read-out: IC50, HparOBP49.
The mark [7] stands for this setting: displacement of 2 μM 1-NPN, 2 μM protein, Tris-HCl pH 7.4, 25°C, read-out: IC50, HparOBP20.
Setting [8] is: calculated from IC50, Ki = [IC50]/(1+[1-NPN]/K1-NPN), read-out: Ki, HparOBP20.
[9] abbreviates: Ki, HparOBP20, calculated from IC50, Ki = [IC50]/(1+[1-NPN]/K1-NPN).

For orientation: IC50 means the concentration at which inhibition is half-maximal. One may read the Ki as the dissociation constant of the complex between target and ligand, obtained from inhibition or displacement.

Like-named read-outs stand apart in the source and are kept apart here.

HparOBP20, sequence (A0A0G2YKL4 entry or part of it): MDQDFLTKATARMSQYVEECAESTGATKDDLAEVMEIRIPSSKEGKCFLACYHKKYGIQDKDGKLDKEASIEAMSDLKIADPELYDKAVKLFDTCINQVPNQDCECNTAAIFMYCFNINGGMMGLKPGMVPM
HparOBP49, sequence (A0A0G2YD95 entry or part of it): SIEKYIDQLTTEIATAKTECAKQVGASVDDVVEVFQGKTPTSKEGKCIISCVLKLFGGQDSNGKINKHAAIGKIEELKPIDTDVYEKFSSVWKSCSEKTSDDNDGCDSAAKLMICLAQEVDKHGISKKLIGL

Turning to `CCCCCC=O` [1-Hexanal], the IC50 in assay [1] and in assay [2] was > 50 µM in each case.
On to `CCCCCCO` [1-Hexanol], for which the IC50 in assay [1] (setting [6]) and in assay [2] (setting [7]) was > 50 µM in each case.
For `Cn1cccc1` [1-Methylpyrrole], the IC50 in assay [1] (setting [6]) was > 50 µM; in assay [2] (setting [7]), 26.1 µM. Besides, in assay [2] (setting [8]), the Ki is 21.9 µM.
Turning to `CCCCCCCCO` [1-Octanol], the values for the IC50 in assay [1] (setting [6]) and in assay [2] (setting [7]) were > 50 µM and 30.2 µM, respectively. For the same compound, in assay [2] (setting [8]), the Ki was 25.3 µM.
Consider `CC(=O)c1ccc(C)c(C)c1` [3′,4′-Dimethylacetophenone], for which the IC50 in assay [1] (setting [6]) and in assay [2] (setting [7]) was > 50 µM in each case.
Take `CCc1ccc(C(C)=O)cc1` [4′-Ethylacetophenone]: the IC50 in assay [1] and in assay [2] was > 50 µM each time.
As for `CCC/C=C/CO` [(E)-2-Hexen-1-ol], the concentration for half-maximal inhibition (IC50) in assay [1] and in assay [2] was > 50 µM in each case.
Regarding `CCC/C=C/C=O` [(E)-2-Hexenal], the IC50 in assay [1] and in assay [2] was > 50 µM in each case.
Regarding `CCC/C=C/COC(C)=O` [(E)-2-Hexenyl acetate], the results for the IC50 in assay [1] (setting [6]) and in assay [2] (setting [7]) were > 50 µM and 27.8 µM, respectively. For the same compound, the Ki in assay [2] (setting [8]) was 23.3 µM.
For `CC/C=C/CCO` [(E)-3-Hexen-1-ol], the IC50 in assay [1] was > 50 µM; in assay [2] it was 30.3 µM. Besides, the Ki in assay [2] (setting [9]) was 25.4 µM.
As to `C=C(C)[C@H]1CC=C(C)CC1` [(R)-(+)-Limonene], the values for the IC50 in assay [1] (setting [6]) and in assay [2] (setting [7]) were > 50 µM and 28.7 µM, respectively. The Ki in assay [2] (setting [8]) is 24 µM.
As to `C=C[C@](C)(O)CCC=C(C)C` [(R)-(-)-Linalool], the IC50 in assay [1] (setting [6]) and in assay [2] (setting [7]) was > 50 µM each time.
Consider `CC/C=C\CCO` [(Z)-3-Hexen-1-ol], for which the IC50 in assay [1] was > 50 µM; in assay [2] it was 30.1 µM. The Ki in assay [2] (setting [9]) was 25.2 µM.
Turning to `CC/C=C\CCOC(C)=O` [(Z)-3-Hexenyl acetate], the Ki in assay [1] (calculated from IC50, Ki = [IC50]/(1+[1-NPN]/K1-NPN), read-out: Ki, HparOBP49) was 39.7 µM; in assay [2] (setting [8]) it was 18.5 µM. Moreover, the values for the IC50 in assay [1] (setting [6]) and in assay [2] (setting [7]) were 44.7 µM and 22.1 µM, respectively. In assay [3] (females), the “Selective response rate, females” value is 98%. This compound displayed a Selective response rate (%), Male in assay [3] (males) of 59%. Also, the “EAG response, females” value in assay [4] (female antennae) was 4.84 mV. Also, the “EAG response, males” value in assay [4] is 4.02 mV. Moreover, the “Male DBCs caught in traps” value in assay [5] is given as 83 ± 4.933 DBCs.
Turning to `O=Cc1ccccc1` [Benzaldehyde], the IC50 in assay [1] and in assay [2] was > 50 µM throughout.
For `OCc1ccccc1` [Benzyl alcohol], the IC50 in assay [1] and in assay [2] was > 50 µM throughout.
For `CCCCCCCCCCCC` [Dodecane], the IC50 in assay [1] (setting [6]) was > 50 µM; in assay [2] (setting [7]), 48.5 µM. Further, the Ki in assay [2] (setting [8]) is 40.6 µM.
For `CCCCCCCCCCCC=O` [Dodecyl aldehyde], the IC50 in assay [1] (setting [6]) and in assay [2] (setting [7]) was > 50 µM each time.
For the compound `CC(C)=CCC/C(C)=C/CC/C(C)=C/CO` [Farnesol, mixture of isomers, Farnesol], the IC50 in assay [1] (setting [6]) and in assay [2] (setting [7]) was > 50 µM each time.
As for `CCCCCC(=O)O` [Hexanoic acid], the IC50 came out at 47.6 µM in assay [1] and 47.2 µM in assay [2]. For the same compound, the Ki was 42.2 µM in assay [1] and 39.5 µM in assay [2] (setting [9]).
In the case of `COC(=O)[C@@H](N)CC(C)C.Cl` [L-Leucine methyl ester], the IC50 in assay [1] (setting [6]) and in assay [2] (setting [7]) was > 50 µM in each case. Further, in assay [3] (females), the “Selective response rate (%), Female” value came out at 0.20c %. The “Selective response rate, males” value in assay [3] (males) was determined as 96%. Further, in assay [4], the “EAG response, males” value was determined as 5.68 mV. In addition, in assay [5], the “Male DBCs caught in traps” value came out at 258 ± 12.860 DBCs.
As to `COC(=O)c1ccccc1` [Methyl benzoate], the IC50 in assay [1] and in assay [2] was > 50 µM throughout.
Regarding `COC(=O)c1ccccc1O` [Methyl salicylate], the IC50 was > 50 µM in assay [1] and 28.5 µM in assay [2]. In addition, in assay [2] (setting [9]), the Ki is 23.8 µM.
With `CCCCCCCCC=O` [Nonanal], the IC50 in assay [1] (setting [6]) and in assay [2] (setting [7]) was > 50 µM each time.
On to `CCCCCCCCC(=O)O` [Nonanoic acid], for which the IC50 in assay [1] (setting [6]) and in assay [2] (setting [7]) was > 50 µM each time.
`CCCCCCCCCCCCCCC` [Pentadecane]: the IC50 was > 50 µM in assay [1] (setting [6]) and 16.5 µM in assay [2] (setting [7]). Also, the Selective response rate (%), Female in assay [3] (females) is 67%. Moreover, in assay [3] (males), the Selective response rate (%), Male is 59%. The “Attractant ability in traps” value in assay [5] is “low attractant ability”. In addition, in assay [2] (setting [8]), the Ki is 13.8 µM.
As for `CCCCC=O` [Valeraldehyde], the IC50 was > 50 µM in assay [1] (setting [6]) and 31.1 µM in assay [2] (setting [7]). For the same compound, in assay [2] (setting [8]), the Ki was 26.1 µM.
With `CC1=CC[C@H](C(C)C)C=C1` [α-Phellandrene], the IC50 is > 50 µM in assay [1] and 21.1 µM in assay [2]. This compound also registered a Selective response rate (%), Female in assay [3] (females) of 51%. Moreover, in assay [3] (males), the Selective response rate (%), Male was determined as 73%. The “Attractant ability in traps” value in assay [5] is reported as “low attractant ability”. Further, the Ki in assay [2] (setting [9]) is 17.6 µM.
As for `CC1=CCC2CC1C2(C)C` (stereo not drawn) [α-Pinene], the figures for the IC50 in assay [1] and in assay [2] were > 50 µM and 26.8 µM, respectively. Also, in assay [2] (setting [9]), the Ki was 22.4 µM.
For `C=C1CC/C=C(\C)CC[C@@H]2[C@@H]1CC2(C)C` [β-Caryophyllene], the IC50 in assay [1] and in assay [2] was > 50 µM each time. In addition, in assay [3] (females), the Selective response rate (%), Female amounted to 48%.
For “Farnesene [Farnesene, mixture of isomers]”, the IC50 in assay [1] (setting [6]) and in assay [2] (setting [7]) was > 50 µM in each case.
Consider Ocimene [Ocimene, mixture of isomers], for which the IC50 in assay [1] (setting [6]) and in assay [2] (setting [7]) was > 50 µM each time.

Values taken from paper PMC6058716, “Two Odorant-Binding Proteins of the Dark Black Chafer (Holotrichia parallela) Display Preferential Binding to Biologically Active Host Plant Volatiles” (Frontiers in Physiology, 2018).
